Data on two compounds can be found in BindingDB's records for doi:10.1021/jm801176e (Nci-Frederick, 2009).

Molecules are shown by their SMILES.

A short description of assay [1]: Inhibition of HIV1 wild type reverse transcriptase-mediated viral DNA synthesis in human HOS cells assessed as luciferase activity treated 3 hrs before infection measured after 48 hrs by luminescence assay.
The nature of assay [2]: Inhibition of HIV1 reverse transcriptase M184V mutant-mediated viral DNA synthesis in human HOS-313 cells expressing HSV thymidine kinase assessed as luciferase activity treated 3 hrs before infection measured after 48 hrs by luminescence assay.
Assay [3] is described as follows: Inhibition of HIV1 reverse transcriptase M184V mutant-mediated viral DNA synthesis in human HOS cells assessed as luciferase activity treated 3 hrs before infection measured after 48 hrs by luminescence assay.
Assay [4] in a line: Inhibition of HIV1 wild type reverse transcriptase-mediated viral DNA synthesis in human HOS-313 cells expressing HSV thymidine kinase assessed as luciferase activity treated 3 hrs before infection measured after 48 hrs by luminescence assay.

Consider `Cc1cn([C@@H]2C[C@H](CO)[C@@H](O)C2)c(=O)[nH]c1=O`, for which the IC50 – broadly, the concentration that inhibits the measured activity by half – in assay [1] was found to be 3200 nM; in assay [2], 190 nM; in assay [3], 1800 nM.

For the compound `Cc1cccc2c1OP(=O)(OC[C@H]1C[C@@H](n3cc(C)c(=O)[nH]c3=O)C[C@@H]1O)OC2` (stereo not given in full), the IC50 in assay [1] came out at 380 nM; in assay [4] it was 120 nM.
